From patent publication US12673975B2, “Cyclic peptide, cell scaffold material, cell separating material, and medium” (FUJIFILM Corporation, priority 2019, dated 2026) come the findings set out here.

For data set [1], the target named is human integrin αvβ5 (Homo sapiens, UniProt P06756+P18084). Nature of the data set: Evaluation of integrin binding property (surface plasmon resonance, Biacore 3000, immobilized cyclic peptide). The gist of the method:
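SPR with cyclic peptide amine-coupled via EDC/NHS to a CM5 chip, blank channel as reference. Integrin αvβ5 at 30, 100, 300 and 1,000 nM injected 10 min at 25 °C in HEPES buffer pH 7.4 with 5 mM MgCl2, 30 min buffer flow, EDTA regeneration; Kd from reference-subtracted signals, graded by category.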
For orientation: Surface plasmon resonance follows binding to a sensor surface in real time, without labels.

The nature of data set [2]: Evaluation of molecule stability (alkali treatment, residual rate by LC/MS). Format: physicochemical. The conditions noted are these: for Performance evaluation: Stability (residual rate of cyclic peptide after alkali treatment): 500 μM peptide aqueous solution plus equivalent of 1 M sodium hydroxide, 15° C., 3 hours, LC/MS peak area. The gist of the method: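 500 μM aqueous cyclic peptide mixed with an equal volume of 1 M NaOH and held 3 h at 15 °C. Residual rate is total LC/MS peak area after treatment relative to untreated (100%), using a C18 column, pH 3 ammonium formate/acetonitrile gradient, 45 °C, ESI±.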

The mark [3] stands for this setting: SPR, 25° C., HEPES buffer with 5 mM magnesium chloride, integrin 30-1,000 nM, read-out: Performance evaluation: Binding activity (dissociation constant between the cyclic peptide and human integrin αvβ5).

SMILES strings stand for the structures. Like-named read-outs stand apart in the source and are kept apart here. Starred links: 1 amine or outer side, 2 acyl side, 3 side chain; linkers in the order of their positions; H or OH if unused. Positions of bridges follow the written chain, without caps; N, C: chain ends. Non-standard residues stand in square brackets, D forms with d. Residues, ends and D or L forms follow the SMILES beside them. hCys = N[C@@H](CCS)C(=O)O; Orn = NCCC[C@H](N)C(=O)O; Dab = NCC[C@H](N)C(=O)O; X1 = O=C(C[*:2])[*:1]; X2 = O=C(C[*:1])[*:2]

human integrin αvβ5, sequence (P06756 31-1048): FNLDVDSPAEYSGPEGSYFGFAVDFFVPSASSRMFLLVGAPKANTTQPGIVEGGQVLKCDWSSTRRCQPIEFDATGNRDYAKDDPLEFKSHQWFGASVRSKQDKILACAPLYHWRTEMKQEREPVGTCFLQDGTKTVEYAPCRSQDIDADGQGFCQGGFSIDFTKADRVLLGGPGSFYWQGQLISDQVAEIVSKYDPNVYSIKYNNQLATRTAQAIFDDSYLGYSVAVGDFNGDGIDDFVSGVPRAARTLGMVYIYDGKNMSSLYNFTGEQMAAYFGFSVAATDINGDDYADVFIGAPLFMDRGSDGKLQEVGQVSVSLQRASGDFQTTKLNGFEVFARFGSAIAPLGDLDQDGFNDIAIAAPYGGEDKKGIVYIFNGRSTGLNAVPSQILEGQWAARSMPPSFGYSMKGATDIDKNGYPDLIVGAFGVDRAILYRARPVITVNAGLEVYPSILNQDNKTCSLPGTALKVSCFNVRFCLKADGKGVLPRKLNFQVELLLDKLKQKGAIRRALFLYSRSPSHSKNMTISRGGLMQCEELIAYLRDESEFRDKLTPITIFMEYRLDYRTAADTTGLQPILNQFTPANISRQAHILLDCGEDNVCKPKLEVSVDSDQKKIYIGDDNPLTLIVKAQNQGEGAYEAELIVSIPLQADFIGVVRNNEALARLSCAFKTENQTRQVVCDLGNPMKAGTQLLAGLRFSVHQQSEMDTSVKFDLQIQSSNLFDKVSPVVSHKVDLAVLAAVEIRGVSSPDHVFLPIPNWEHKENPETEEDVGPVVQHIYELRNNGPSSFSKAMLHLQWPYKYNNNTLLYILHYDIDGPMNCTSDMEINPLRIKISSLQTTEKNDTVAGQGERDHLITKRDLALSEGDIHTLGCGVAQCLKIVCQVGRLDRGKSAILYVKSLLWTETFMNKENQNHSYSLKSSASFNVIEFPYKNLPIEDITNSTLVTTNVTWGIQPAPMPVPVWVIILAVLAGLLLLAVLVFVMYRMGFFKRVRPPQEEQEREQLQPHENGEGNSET
human integrin αvβ5, sequence (P18084 24-799): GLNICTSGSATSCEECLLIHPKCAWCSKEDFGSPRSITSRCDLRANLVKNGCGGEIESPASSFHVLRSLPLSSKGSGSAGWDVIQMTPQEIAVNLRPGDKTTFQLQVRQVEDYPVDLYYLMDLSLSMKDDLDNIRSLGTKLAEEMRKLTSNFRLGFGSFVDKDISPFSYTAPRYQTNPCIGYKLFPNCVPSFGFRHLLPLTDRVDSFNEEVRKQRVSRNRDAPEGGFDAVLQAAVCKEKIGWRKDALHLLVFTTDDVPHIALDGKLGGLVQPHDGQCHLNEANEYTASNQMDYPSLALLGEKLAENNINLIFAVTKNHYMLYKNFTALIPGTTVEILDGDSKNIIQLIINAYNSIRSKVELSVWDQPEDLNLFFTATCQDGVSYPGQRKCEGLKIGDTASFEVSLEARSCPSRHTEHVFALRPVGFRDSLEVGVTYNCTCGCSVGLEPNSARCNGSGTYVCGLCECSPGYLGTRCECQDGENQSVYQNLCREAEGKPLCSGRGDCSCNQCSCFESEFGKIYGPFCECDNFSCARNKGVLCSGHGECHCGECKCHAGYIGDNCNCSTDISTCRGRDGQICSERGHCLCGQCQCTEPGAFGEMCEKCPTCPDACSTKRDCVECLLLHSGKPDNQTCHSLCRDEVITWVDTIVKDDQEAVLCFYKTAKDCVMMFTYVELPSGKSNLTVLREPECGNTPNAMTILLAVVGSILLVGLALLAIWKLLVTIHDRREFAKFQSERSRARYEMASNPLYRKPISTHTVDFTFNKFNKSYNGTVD

Take `CC[C@H](C)[C@@H]1NC(=O)[C@@H](NC(=O)CNC(=O)[C@H](CCCCN)NC(=O)[C@H](CCCCN)NC(=O)[C@@H](N)CCCCN)CCCNC(=O)CSCC[C@@H](C(=O)N[C@@H](C)C(=O)O)NC(=O)[C@H](CCCNC(=N)N)NC(=O)[C@H](Cc2ccccc2)NC(=O)[C@H]([C@@H](C)O)NC(=O)[C@H](CC(=O)O)NC(=O)CNC(=O)[C@H](CCCNC(=N)N)NC(=O)[C@@H]2CCCN2C1=O` [Cyclic peptide 119, KKKG(Orn(acetyl))IPRGDTFR-(Hcy)-A] (H-KKKG[Orn]IPRGDTFR[hCys]A-OH; linker 5-14 via X1): the Kd in data set [1] (surface plasmon resonance, immobilized cyclic peptide, human integrin αvβ5, read-out: Binding activity (integrin binding property, dissociation constant rank)) was under 50 nM. Also, in data set [2] (alkali treatment, residual rate by LC/MS), the “Stability (molecule stability, residual rate of the cyclic peptide rank)” value was “A (The residual rate of the cyclic peptide is 70% or more.)”.

Regarding `CC(C)[C@@H]1NC(=O)[C@@H](NC(=O)[C@H](CCCCN)NC(=O)[C@H](CCCCN)NC(=O)[C@@H](N)CCCCN)CCSCC(=O)NCC[C@@H](C(=O)O)NC(=O)[C@H](Cc2ccccc2)NC(=O)[C@H]([C@@H](C)O)NC(=O)[C@H](CC(=O)O)NC(=O)CNC(=O)[C@H](CCCNC(=N)N)NC(=O)[C@@H]2CCCN2C1=O` [Cyclic peptide 64, KKK-(Hcy)-VPRGDTF(Dab(acetyl))] (H-KKK[hCys]VPRGDTF[Dab]-OH; linker 4-12 via X2), in data set [1] (setting [3]), the Kd is under 50 nM. The “Performance evaluation: Stability (residual rate of cyclic peptide after alkali treatment)” value in data set [2] is “A (The residual rate of the cyclic peptide is 70% or more.)”.

With `C[C@H](NC(=O)[C@H](CCCCN)NC(=O)[C@H](CCCCN)NC(=O)[C@@H](N)CCCCN)C(=O)N[C@H]1CCSCC(=O)NCC[C@@H](C(N)=O)NC(=O)[C@H](CCCNC(=N)N)NC(=O)[C@H](Cc2ccc(O)cc2)NC(=O)[C@H](CC(N)=O)NC(=O)[C@H](CC(=O)O)NC(=O)CNC(=O)[C@H](CCCNC(=N)N)NC(=O)[C@@H]2CCCN2C(=O)[C@H](CCC(=O)O)NC1=O` [Cyclic peptide 50, KKKA-(Hcy)-EPRGDNYR(Dab(acetyl))] (H-KKKA[hCys]EPRGDNYR[Dab]-NH2; linker 5-14 via X2), in data set [1] (setting [3]), the Kd was in the range of 100 to 200 nM. Besides, the “Performance evaluation: Stability (residual rate of cyclic peptide after alkali treatment)” value in data set [2] is reported as “A (The residual rate of the cyclic peptide is 70% or more.)”.

Consider `CC(C)[C@@H]1NC(=O)[C@@H](NC(=O)[C@H](C)NC(=O)[C@H](CCCCN)NC(=O)[C@H](CCCCN)NC(=O)[C@@H](N)CCCCN)CCSCC(=O)NCC[C@@H](C(=O)NCC(=O)O)NC(=O)[C@H](C)NC(=O)[C@H](Cc2ccccc2)NC(=O)[C@H](CO)NC(=O)[C@H](CC(=O)O)NC(=O)CNC(=O)[C@H](CCCNC(=N)N)NC(=O)[C@@H]2CCCN2C1=O` [Cyclic peptide 97, KKKA-(Hcy)-VPRGDSFA(Dab(acetyl))G] (H-KKKA[hCys]VPRGDSFA[Dab]G-OH; linker 5-14 via X2), for which the Kd in data set [1] (setting [3]) was under 50 nM. The “Performance evaluation: Stability (residual rate of cyclic peptide after alkali treatment)” value in data set [2] is on record as “A (The residual rate of the cyclic peptide is 70% or more.)”.

On to `CC[C@H](C)[C@@H]1NC(=O)[C@@H](NC(=O)CNC(=O)[C@H](CCCCN)NC(=O)[C@H](CCCCN)NC(=O)[C@@H](N)CCCCN)CCSCC(=O)NCC[C@@H](C(=O)O)NC(=O)[C@H](CCCNC(=N)N)NC(=O)[C@H](Cc2ccccc2)NC(=O)[C@H]([C@@H](C)O)NC(=O)[C@H](CC(=O)O)NC(=O)CNC(=O)[C@H](CCCNC(=N)N)NC(=O)[C@@H]2CCCN2C1=O` [Cyclic peptide 59, KKKG-(Hcy)-IPRGDTFR(Dab(acetyl))] (H-KKKG[hCys]IPRGDTFR[Dab]-OH; linker 5-14 via X2), for which the Kd in data set [1] (setting [3]) was under 50 nM. Moreover, the “Performance evaluation: Stability (residual rate of cyclic peptide after alkali treatment)” value in data set [2] is “A (The residual rate of the cyclic peptide is 70% or more.)”.
